The values below come from ChEMBL document CHEMBL5465560, “Selectivity Literature for EUbOPEN Chemogenomic Library” (2024).

Bounds are passed on as bounds.

Assay [1] has as its target Cyclin-dependent kinase-like 1 (Homo sapiens) (UniProt Q00532). The conditions noted are these: at 10 µM.
Assay [2] deals with Mast/stem cell growth factor receptor Kit (Homo sapiens), P10721 [V559D,T670I]. The conditions noted are these: at 10 µM.
For assay [3], the target named is Phosphatidylinositol 4-phosphate 5-kinase type-1 alpha (Homo sapiens) (UniProt Q99755). Description: Selectivity interaction (Ambit KINOMEscan and KiNATiv profiling in Jurkat cells) EUB0000090b PIP5K1A. Format: cell-based. To be noted: at 1 µM.
Assay [4] deals with T1, Serine/threonine-protein kinase Nek3 (Homo sapiens) (UniProt P51956).
T1 sequence (whole entry): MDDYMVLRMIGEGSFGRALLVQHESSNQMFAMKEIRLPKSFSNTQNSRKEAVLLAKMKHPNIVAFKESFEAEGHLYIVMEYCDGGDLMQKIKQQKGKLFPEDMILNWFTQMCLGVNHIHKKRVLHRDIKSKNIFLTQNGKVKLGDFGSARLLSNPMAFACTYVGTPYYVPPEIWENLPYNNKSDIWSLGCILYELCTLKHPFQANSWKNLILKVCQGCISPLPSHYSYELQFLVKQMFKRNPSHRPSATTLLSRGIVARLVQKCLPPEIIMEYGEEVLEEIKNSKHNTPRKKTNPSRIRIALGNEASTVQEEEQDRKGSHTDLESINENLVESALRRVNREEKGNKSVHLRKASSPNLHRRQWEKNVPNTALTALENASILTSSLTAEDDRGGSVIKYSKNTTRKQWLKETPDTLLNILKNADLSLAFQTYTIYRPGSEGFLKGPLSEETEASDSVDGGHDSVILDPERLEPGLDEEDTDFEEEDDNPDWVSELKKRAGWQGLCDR
The experiment in a line: Selectivity interaction (KinomeScan (DiscoverX)) EUB0000045b NEK3.

The target in assay [5] is Histone-lysine N-methyltransferase KMT5B (Homo sapiens) (UniProt Q4FZB7). The conditions noted are these: at 10 µM.
The target in assay [6] is T2, Inhibitor of nuclear factor kappa-B kinase subunit beta (Homo sapiens) (UniProt O14920).
T2 sequence (whole entry): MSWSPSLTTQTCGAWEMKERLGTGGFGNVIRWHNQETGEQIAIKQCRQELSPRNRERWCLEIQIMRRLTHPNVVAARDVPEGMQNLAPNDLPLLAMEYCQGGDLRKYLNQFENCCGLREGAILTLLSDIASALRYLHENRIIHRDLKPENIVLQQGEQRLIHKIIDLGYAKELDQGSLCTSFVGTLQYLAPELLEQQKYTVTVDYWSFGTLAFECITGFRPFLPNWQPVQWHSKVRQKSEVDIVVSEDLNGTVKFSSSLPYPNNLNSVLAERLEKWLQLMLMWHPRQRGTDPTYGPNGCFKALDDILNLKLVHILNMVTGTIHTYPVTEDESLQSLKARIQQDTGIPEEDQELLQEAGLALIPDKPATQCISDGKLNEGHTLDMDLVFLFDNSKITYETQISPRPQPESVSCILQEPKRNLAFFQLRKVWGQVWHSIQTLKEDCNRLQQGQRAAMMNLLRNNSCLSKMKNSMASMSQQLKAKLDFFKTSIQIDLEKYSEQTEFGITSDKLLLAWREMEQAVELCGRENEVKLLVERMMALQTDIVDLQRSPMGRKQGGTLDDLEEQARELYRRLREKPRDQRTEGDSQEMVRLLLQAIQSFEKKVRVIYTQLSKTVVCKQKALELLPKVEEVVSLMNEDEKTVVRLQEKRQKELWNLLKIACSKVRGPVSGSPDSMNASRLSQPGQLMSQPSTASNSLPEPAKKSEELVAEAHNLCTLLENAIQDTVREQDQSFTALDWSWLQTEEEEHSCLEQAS
The experiment in a line: Selectivity interaction (SelectScreen profiling (Invitrogen)) EUB0000607a IKBKB. To be noted: at 2 µM.

In assay [7] the target is Interferon-induced, double-stranded RNA-activated protein kinase (Homo sapiens) (UniProt P19525). The experiment in a line: Selectivity interaction (ActivX KiNativ screen (kinase selectivity in THP-1 cell lysates)) EUB0000639a EIF2AK2. To be noted: lysate, at 0.04 µM. It is filed as subcellular.
The target in assay [8] is T3, Phosphatidylinositol 4,5-bisphosphate 3-kinase catalytic subunit delta isoform (Homo sapiens) (UniProt O00329).
T3 sequence (whole entry): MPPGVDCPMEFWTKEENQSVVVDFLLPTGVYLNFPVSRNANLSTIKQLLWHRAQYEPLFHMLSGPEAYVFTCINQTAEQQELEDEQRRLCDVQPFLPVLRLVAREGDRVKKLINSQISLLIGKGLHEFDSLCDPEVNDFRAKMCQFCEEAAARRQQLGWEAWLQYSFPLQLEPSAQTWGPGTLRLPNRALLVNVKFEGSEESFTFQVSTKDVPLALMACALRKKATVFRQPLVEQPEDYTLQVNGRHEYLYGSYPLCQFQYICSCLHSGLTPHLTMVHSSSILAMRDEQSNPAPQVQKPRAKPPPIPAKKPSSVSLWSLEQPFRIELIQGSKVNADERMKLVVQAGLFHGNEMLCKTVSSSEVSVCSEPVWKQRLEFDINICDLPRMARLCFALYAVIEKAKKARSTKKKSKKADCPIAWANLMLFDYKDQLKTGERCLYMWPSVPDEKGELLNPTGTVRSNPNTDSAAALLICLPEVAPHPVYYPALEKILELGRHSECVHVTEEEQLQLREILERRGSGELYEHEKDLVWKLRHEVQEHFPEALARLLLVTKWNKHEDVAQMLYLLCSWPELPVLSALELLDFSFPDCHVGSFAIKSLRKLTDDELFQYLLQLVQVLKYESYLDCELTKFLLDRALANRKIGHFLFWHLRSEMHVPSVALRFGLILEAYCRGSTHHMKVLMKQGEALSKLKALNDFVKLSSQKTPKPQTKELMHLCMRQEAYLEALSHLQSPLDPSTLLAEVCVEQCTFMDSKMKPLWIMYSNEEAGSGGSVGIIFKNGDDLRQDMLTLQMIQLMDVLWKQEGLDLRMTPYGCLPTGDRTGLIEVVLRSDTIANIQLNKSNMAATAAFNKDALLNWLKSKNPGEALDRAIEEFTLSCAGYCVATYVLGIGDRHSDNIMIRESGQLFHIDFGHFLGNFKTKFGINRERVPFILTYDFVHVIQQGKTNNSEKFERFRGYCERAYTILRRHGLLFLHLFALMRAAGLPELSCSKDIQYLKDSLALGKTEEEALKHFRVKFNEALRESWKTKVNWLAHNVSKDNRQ
The experiment in a line: Selectivity interaction (KinomeScan (DiscoverX)) EUB0000877a PIK3CD. To be noted: at 10 µM.

The target of assay [9] is LIM domain kinase 1 (Homo sapiens) (UniProt P53667). Description: Selectivity interaction (KinomeScan (DiscoverX)) EUB0000595a LIMK1. The conditions noted are these: at 10 µM.
Assay [10] deals with Mitogen-activated protein kinase 11 (Homo sapiens) (UniProt Q15759). The experiment in a line: Selectivity interaction (Kinase panel (KiNativ target engagement assay in Jurkat cells)) EUB0001635a MAPK11. Format: cell-based. The conditions noted are these: Selectivity number of off-targets 0.0, Selectivity number of targets 233.0, Source Knowledge https://www.sciencedirect.com/science/article/pii/S2451945619300674?via%3Dihub, at 1 µM.
Chain of Mitogen-activated protein kinase 11 (Homo sapiens) (Q15759 whole entry): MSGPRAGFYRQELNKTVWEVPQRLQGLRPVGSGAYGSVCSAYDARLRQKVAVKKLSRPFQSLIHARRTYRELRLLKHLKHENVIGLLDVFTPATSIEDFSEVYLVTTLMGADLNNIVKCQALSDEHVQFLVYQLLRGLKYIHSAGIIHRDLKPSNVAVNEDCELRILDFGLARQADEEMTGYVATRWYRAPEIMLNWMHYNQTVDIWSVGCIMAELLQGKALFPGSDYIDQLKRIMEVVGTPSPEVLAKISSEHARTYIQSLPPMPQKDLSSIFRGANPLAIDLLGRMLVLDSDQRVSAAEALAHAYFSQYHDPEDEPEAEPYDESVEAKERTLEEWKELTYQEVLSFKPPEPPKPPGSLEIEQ

Chain of Interferon-induced, double-stranded RNA-activated protein kinase (Homo sapiens) (P19525 whole entry, canonical isoform): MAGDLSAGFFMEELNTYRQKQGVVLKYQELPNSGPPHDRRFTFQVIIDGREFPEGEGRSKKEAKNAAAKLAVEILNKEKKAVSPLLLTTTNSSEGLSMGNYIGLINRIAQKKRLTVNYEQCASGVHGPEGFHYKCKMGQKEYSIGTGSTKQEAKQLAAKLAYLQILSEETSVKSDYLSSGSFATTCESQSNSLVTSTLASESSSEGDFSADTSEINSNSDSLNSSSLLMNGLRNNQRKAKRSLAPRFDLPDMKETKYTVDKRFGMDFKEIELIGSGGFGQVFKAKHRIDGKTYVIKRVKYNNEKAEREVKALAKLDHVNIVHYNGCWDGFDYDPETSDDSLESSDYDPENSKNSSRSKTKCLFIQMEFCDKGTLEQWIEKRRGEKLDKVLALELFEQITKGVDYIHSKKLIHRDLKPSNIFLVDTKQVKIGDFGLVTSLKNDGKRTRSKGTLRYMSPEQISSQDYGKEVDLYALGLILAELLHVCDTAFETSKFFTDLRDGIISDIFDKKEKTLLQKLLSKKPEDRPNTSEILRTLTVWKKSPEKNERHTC
Chain of Mast/stem cell growth factor receptor Kit (Homo sapiens), P10721 [V559D,T670I] (P10721 whole entry V559D/T670I): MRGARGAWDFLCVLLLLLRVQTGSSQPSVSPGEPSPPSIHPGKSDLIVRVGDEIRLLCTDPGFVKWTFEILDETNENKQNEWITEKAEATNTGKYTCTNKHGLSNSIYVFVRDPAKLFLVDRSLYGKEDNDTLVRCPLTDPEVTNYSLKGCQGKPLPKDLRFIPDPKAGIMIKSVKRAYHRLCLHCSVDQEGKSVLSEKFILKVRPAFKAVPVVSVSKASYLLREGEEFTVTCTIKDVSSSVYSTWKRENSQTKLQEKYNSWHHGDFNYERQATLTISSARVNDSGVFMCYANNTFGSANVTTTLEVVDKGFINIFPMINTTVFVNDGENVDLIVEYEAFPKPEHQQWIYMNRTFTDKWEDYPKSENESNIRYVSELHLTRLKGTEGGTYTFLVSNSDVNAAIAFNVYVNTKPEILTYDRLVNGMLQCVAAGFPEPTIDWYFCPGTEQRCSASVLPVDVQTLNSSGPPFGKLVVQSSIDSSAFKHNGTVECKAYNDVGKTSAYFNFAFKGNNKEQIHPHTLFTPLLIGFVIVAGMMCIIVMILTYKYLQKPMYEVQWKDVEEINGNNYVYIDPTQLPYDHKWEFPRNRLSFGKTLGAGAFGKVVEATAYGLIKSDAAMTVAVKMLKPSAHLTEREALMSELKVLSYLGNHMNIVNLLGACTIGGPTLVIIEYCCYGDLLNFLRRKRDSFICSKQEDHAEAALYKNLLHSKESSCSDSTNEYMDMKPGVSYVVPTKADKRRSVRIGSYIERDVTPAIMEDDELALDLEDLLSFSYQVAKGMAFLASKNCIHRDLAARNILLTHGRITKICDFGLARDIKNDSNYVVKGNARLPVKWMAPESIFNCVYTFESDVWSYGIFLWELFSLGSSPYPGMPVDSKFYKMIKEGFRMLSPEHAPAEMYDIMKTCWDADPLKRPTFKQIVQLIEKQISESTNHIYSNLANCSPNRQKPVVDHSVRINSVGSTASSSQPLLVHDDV
Chain of Phosphatidylinositol 4-phosphate 5-kinase type-1 alpha (Homo sapiens) (Q99755 whole entry): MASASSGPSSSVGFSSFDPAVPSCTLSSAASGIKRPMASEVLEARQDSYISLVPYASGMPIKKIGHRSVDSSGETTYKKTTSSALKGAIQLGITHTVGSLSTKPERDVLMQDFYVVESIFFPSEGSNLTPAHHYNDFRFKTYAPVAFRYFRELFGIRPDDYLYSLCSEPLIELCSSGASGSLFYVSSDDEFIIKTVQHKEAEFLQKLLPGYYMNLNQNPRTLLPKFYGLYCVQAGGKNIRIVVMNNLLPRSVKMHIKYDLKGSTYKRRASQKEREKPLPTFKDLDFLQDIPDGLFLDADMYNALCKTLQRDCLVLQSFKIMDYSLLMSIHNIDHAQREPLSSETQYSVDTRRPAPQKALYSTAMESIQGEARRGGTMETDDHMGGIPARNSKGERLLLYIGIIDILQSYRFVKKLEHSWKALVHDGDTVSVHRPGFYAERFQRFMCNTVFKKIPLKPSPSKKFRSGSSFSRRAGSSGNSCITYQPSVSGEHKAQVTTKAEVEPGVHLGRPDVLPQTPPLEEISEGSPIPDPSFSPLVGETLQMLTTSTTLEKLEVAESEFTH
Chain of LIM domain kinase 1 (Homo sapiens) (P53667 whole entry, looked up, the tested form may be a part): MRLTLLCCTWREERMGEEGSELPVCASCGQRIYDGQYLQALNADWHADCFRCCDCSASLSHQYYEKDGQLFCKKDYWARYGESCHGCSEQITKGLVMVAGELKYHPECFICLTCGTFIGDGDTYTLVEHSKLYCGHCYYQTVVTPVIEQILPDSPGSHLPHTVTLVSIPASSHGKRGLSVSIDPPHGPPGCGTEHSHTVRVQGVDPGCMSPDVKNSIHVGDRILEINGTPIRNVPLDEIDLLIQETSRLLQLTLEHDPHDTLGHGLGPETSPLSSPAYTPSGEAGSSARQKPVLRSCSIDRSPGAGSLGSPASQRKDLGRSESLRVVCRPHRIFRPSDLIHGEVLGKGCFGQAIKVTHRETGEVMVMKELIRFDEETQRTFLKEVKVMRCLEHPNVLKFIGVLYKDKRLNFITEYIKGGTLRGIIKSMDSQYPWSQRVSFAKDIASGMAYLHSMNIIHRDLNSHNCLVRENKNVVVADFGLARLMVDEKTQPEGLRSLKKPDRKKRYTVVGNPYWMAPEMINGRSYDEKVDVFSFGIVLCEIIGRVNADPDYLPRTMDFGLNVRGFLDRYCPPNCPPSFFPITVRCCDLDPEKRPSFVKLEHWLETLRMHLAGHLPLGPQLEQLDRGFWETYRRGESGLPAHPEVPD
Chain of Cyclin-dependent kinase-like 1 (Homo sapiens) (Q00532 whole entry): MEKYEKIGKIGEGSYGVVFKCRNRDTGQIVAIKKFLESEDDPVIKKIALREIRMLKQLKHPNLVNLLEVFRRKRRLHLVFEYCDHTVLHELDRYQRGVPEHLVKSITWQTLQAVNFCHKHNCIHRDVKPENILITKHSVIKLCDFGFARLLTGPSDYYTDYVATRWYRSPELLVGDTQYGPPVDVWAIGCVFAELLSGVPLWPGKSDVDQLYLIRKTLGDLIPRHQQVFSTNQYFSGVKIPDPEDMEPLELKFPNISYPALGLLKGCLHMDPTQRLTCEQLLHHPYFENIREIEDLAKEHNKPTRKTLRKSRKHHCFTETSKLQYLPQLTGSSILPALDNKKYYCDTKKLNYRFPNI
Chain of Histone-lysine N-methyltransferase KMT5B (Homo sapiens) (Q4FZB7 whole entry, looked up): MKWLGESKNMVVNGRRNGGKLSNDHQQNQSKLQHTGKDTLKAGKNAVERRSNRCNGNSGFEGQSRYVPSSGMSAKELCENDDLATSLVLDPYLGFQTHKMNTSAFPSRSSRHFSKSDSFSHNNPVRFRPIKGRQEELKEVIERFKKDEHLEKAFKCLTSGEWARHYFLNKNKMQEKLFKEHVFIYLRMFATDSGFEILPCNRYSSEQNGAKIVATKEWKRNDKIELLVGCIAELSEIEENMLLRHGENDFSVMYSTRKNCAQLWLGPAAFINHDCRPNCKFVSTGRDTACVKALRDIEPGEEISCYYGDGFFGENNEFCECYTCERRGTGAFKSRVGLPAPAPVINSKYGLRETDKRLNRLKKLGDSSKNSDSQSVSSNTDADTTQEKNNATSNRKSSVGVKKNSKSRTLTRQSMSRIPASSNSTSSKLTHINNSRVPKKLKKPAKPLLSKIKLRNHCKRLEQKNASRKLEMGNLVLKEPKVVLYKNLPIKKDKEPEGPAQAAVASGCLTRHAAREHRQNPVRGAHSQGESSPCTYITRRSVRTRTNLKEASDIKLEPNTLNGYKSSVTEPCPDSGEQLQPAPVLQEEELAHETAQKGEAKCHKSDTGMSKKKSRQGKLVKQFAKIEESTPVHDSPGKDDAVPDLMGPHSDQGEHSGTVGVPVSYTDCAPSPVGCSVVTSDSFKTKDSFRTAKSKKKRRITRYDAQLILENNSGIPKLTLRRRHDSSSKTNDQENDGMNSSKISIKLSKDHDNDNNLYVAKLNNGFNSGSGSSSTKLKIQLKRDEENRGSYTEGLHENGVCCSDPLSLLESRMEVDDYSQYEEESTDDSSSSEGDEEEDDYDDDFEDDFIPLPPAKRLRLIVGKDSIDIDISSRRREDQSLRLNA

As for `Cc1cc([C@@H](C)Nc2ccccc2C(=O)O)c2nc(N3CCOCC3)cc(=O)n2c1` [AZD-6482], the figures for the % of control in assay [1] and in assay [2] were 100% and 91%, respectively.
Compound `CN(C)C/C=C/C(=O)Nc1ccc(C(=O)N2CCCC(Nc3ncc(Cl)c(-c4c[nH]c5ccccc45)n3)C2)cc1` (stereo unspecified) registered a % of control in assay [3] of 78%.
As to `C=CC(=O)Nc1cc(-n2c(=O)ccc3cnc4ccc(-c5ccc(NS(C)(=O)=O)cc5)cc4c32)ccc1C`, the % of control stood at 98% in [4] (at 1 µM) and 100% in [4] (at 10 µM).
As to `CNCCN1CCC(c2cc(CN(C)C(=O)c3cccc(Oc4ccccc4)c3)ccn2)CC1`, the % activity in [5] is above 90%.
Take `CNC(=O)Nc1ccc(-c2nc(N3CC4CCC(C3)O4)c3cnn(C4CCC5(CC4)OCCO5)c3n2)cc1`: the % of inhibition in assay [6] was -5%.
For the compound `CC[C@@H]1[C@H](F)C(=O)N[C@@H]1COc1nccc2cc(C(N)=O)c(OC)cc12` [ZIMLOVISERTIB], the % of inhibition in [7] is 3.1%.
Take `CCC(=O)N1CC[C@H](Nc2ncnc3c2CN(c2cnc(OC)c(C(F)(F)F)c2)CC3)C1` [LENIOLISIB]: the % of inhibition in assay [8] turned out to be 100%.
Consider `COCC(=O)NC/C=C/c1ccc2ncnc(Nc3ccc(Oc4ccc(C)nc4)c(C)c3)c2c1` [CP-724714], for which the % of control in [9] was 93%.
As for `C=CC(=O)Nc1ccc(C(=O)Nc2[nH]nc3c2CN(C(=O)N[C@H](CN(C)C)c2ccccc2)C3(C)C)cc1`, in assay [10], the % of engagement is -9.9%.
